Experiments:
[1] = tested on: A431cells (human epidermoid carcinoma); test: In vitro tumor cell proliferation assay (Cell Titer-Glo luminescent cell viability), A431 cells; type: cell-based; conditions: A-431, 72 h, 72 hours drug exposure, 10% Fetal Bovine Serum, ATP luminescence readout, read-out: IC50 (50% inhibition of cell proliferation)
Outline: (§1)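 ATP luminescence (CellTiter-Glo) measured proliferation after 72 h compound exposure at 37 °C, giving IC50 values. Serial dilutions spanning 64 pM–100 μM in 0.1% DMSO were applied one day after plating 2.5×10^3 cells/well in RPMI plus 10% fetal bovine serum.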

[2] = tested on: BT474 (human breast carcinoma); test: In vitro tumor cell proliferation assay (Cell Titer-Glo luminescent cell viability), BT474 cells; type: cell-based; conditions: BT-474, 72 hours drug exposure, 10% Fetal Bovine Serum, ATP luminescence readout, read-out: IC50 (50% inhibition of cell proliferation)
Outline: as §1

| Compound | IC50 [1] [µM] | IC50 [2] [µM] |
| --- | --- | --- |
| Fc1cccc(COc2ccc(Nc3ncnc4sc5c(c34)CCC(CCN3CCCC3)C5)cc2Cl)c1 (stereo not shown) [Example 161, N-{3-chloro-4-[(3-fluorobenzyl)oxy]phenyl}-7-(2-pyrrolidin-1-ylethyl)-5,6,7,8-tetrahydro[1]benzothieno[2,3-d]pyrimidin-4-amine] | < 5 | < 5 |
| CN(C)CCNCCC1CCc2c(sc3ncnc(Nc4ccc(OCc5cccc(F)c5)c(Cl)c4)c23)C1 (stereo not shown) [Example 162, N′-{2-[4-({3-chloro-4-[(3-fluorobenzyl)oxy]phenyl}amino)-5,6,7,8-tetrahydro[1]benzothieno[2,3-d]pyrimidin-7-yl]ethyl}-N,N-dimethylethane-1,2-diamine] | < 5 | < 5 |
| OCCNCCC1CCc2c(sc3ncnc(Nc4ccc(OCc5cccc(F)c5)c(Cl)c4)c23)C1 (stereo not shown) [Example 163, 2-({2-[4-({3-chloro-4-[(3-fluorobenzyl)oxy]phenyl}amino)-5,6,7,8-tetrahydro[1]benzothieno[2,3-d]pyrimidin-7-yl]ethyl}amino)ethanol] | < 5 | < 5 |
| CN(C)CCC1CCc2c(sc3ncnc(Nc4ccc(OCc5cccc(F)c5)c(Cl)c4)c23)C1 (stereo not shown) [Example 164, N-{3-chloro-4-[(3-fluorobenzyl)oxy]phenyl}-7-[2-(dimethylamino)ethyl]-5,6,7,8-tetrahydro[1]benzothieno[2,3-d]pyrimidin-4-amine] | < 5 | < 5 |
| OCCN(CCO)CCC1CCc2c(sc3ncnc(Nc4ccc(OCc5cccc(F)c5)c(Cl)c4)c23)C1 (stereo not shown) [Example 165, 2,2′-({2-[4-({3-chloro-4-[(3-fluorobenzyl)oxy]phenyl}amino)-5,6,7,8-tetrahydro[1]benzothieno[2,3-d]pyrimidin-7-yl]ethyl}imino)diethanol] | < 5 | < 5 |
| Fc1cccc(COc2ccc(Nc3ncnc4sc5c(c34)CCC(CCNCCN3CCOCC3)C5)cc2Cl)c1 (stereo not shown) [Example 166, N-{3-chloro-4-[(3-fluorobenzyl)oxy]phenyl}-7-{2-[(2-morpholin-4-ylethyl)amino]ethyl}-5,6,7,8-tetrahydro[1]benzothieno[2,3-d]pyrimidin-4-amine] | < 50 | < 5 |
| Fc1cccc(COc2ccc(Nc3ncnc4sc5c(c34)CCC(CCN3CCCCC3)C5)cc2Cl)c1 (stereo not shown) [Example 167, N-{3-chloro-4-[(3-fluorobenzyl)oxy]phenyl}-7-(2-piperidin-1-ylethyl)-5,6,7,8-tetrahydro[1]benzothieno[2,3-d]pyrimidin-4-amine] | < 5 | < 5 |
| COCCN1CCN(CCC2CCc3c(sc4ncnc(Nc5ccc(OCc6cccc(F)c6)c(Cl)c5)c34)C2)CC1 (stereo not shown) [Example 168, N-{3-chloro-4-[(3-fluorobenzyl)oxy]phenyl}-7-{2-[4-(2-methoxyethyl)piperazin-1-yl]ethyl}-5,6,7,8-tetrahydro[1]benzothieno[2,3-d]pyrimidin-4-amine] | < 5 | < 5 |
| CNCCC1CCc2c(sc3ncnc(Nc4ccc(OCc5cccc(F)c5)c(Cl)c4)c23)C1 (stereo not shown) [Example 169, N-{3-chloro-4-[(3-fluorobenzyl)oxy]phenyl}-7-[2-(methylamino)ethyl]-5,6,7,8-tetrahydro[1]benzothieno[2,3-d]pyrimidin-4-amine] | < 5 | < 5 |
| Fc1cccc(COc2ccc(Nc3ncnc4sc5c(c34)CCC(CCn3ccnc3)C5)cc2Cl)c1 (stereo not shown) [Example 170, N-{3-chloro-4-[(3-fluorobenzyl)oxy]phenyl}-7-[2-(1H-imidazol-1-yl)ethyl]-5,6,7,8-tetrahydro[1]benzothieno[2,3-d]pyrimidin-4-amine] | < 5 | < 5 |
| Fc1cccc(COc2ccc(Nc3ncnc4sc5c(c34)CCC(CCN3CCN(Cc4ccncc4)CC3)C5)cc2Cl)c1 (stereo not shown) [Example 171, N-{3-chloro-4-[(3-fluorobenzyl)oxy]phenyl}-7-{2-[4-(pyridin-4-ylmethyl)piperazin-1-yl]ethyl}-5,6,7,8-tetrahydro[1]benzothieno[2,3-d]pyrimidin-4-amine] | < 5 | < 5 |
| N#Cc1ccc(N2CCN(CCC3CCc4c(sc5ncnc(Nc6ccc(OCc7cccc(F)c7)c(Cl)c6)c45)C3)CC2)cc1 (stereo not shown) [Example 172, 4-(4-{2-[4-({3-chloro-4-[(3-fluorobenzyl)oxy]phenyl}amino)-5,6,7,8-tetrahydro[1]benzothieno[2,3-d]pyrimidin-7-yl]ethyl}piperazin-1-yl)benzonitrile] | < 50 | < 5 |
| CCOC(=O)CC1CCc2c(sc3ncnc(Nc4ccc(OCc5ccccn5)c(Cl)c4)c23)C1 (stereo not shown) [Example 173, {4-[3-Chloro-4-(pyridin-2-ylmethoxy)-phenylamino]-5,6,7,8-tetrahydro-benzo[4,5]thieno[2,3-d]pyrimidin-7-yl}-acetic acid ethyl ester] | < 50 | < 5 |
| OCCC1CCc2c(sc3ncnc(Nc4ccc(OCc5ccccn5)c(Cl)c4)c23)C1 (stereo not shown) [Example 174, 2-{4-[3-Chloro-4-(pyridin-2-ylmethoxy)-phenylamino]-5,6,7,8-tetrahydro-benzo[4,5]thieno[2,3-d]pyrimidin-7-yl}-ethanol] | < 50 | < 5 |
| CS(=O)(=O)OCCC1CCc2c(sc3ncnc(Nc4ccc(OCc5ccccn5)c(Cl)c4)c23)C1 (stereo not shown) [Example 175, Methanesulfonic acid 2-{4-[3-chloro-4-(pyridin-2-ylmethoxy)-phenylamino]-5,6,7,8-tetrahydro-benzo[4,5]thieno[2,3-d]pyrimidin-7-yl}-ethyl ester] | < 5 | < 5 |
| COCCNCCC1CCc2c(sc3ncnc(Nc4ccc(OCc5ccccn5)c(Cl)c4)c23)C1 (stereo not shown) [Example 176, N-[3-chloro-4-(pyridin-2-ylmethoxy)phenyl]-7-{2-[(2-methoxyethyl)amino]ethyl}-5,6,7,8-tetrahydro[1]benzothieno[2,3-d]pyrimidin-4-amine] | < 5 | < 5 |
| Clc1cc(Nc2ncnc3sc4c(c23)CCC(CCN2CCOCC2)C4)ccc1OCc1ccccn1 (stereo not shown) [Example 177, [3-Chloro-4-(pyridin-2-ylmethoxy)-phenyl]-[7-(2-morpholin-4-yl-ethyl)-5,6,7,8-tetrahydro-benzo[4,5]thieno[2,3-d]pyrimidin-4-yl]-amine] | < 5 | < 5 |
| CS(=O)(=O)CCNCCC1CCc2c(sc3ncnc(Nc4ccc(OCc5ccccn5)c(Cl)c4)c23)C1 (stereo not shown) [Example 178, N-[3-chloro-4-(pyridin-2-ylmethoxy)phenyl]-7-(2-{[2-(methylsulfonyl)ethyl]amino}ethyl)-5,6,7,8-tetrahydro[1]benzothieno[2,3-d]pyrimidin-4-amine] | < 5 | < 5 |
| OCCN(CCO)CCC1CCc2c(sc3ncnc(Nc4ccc(OCc5ccccn5)c(Cl)c4)c23)C1 (stereo not shown) [Example 179, 2,2′-{[2-(4-{[3-chloro-4-(pyridin-2-ylmethoxy)phenyl]amino}-5,6,7,8-tetrahydro[1]benzothieno[2,3-d]pyrimidin-7-yl)ethyl]imino}diethanol] | < 5 | < 5 |
| OCCNCCC1CCc2c(sc3ncnc(Nc4ccc(OCc5ccccn5)c(Cl)c4)c23)C1 (stereo not shown) [Example 180, 2-{[2-(4-{[3-chloro-4-(pyridin-2-ylmethoxy)phenyl]amino}-5,6,7,8-tetrahydro[1]benzothieno[2,3-d]pyrimidin-7-yl)ethyl]amino}ethanol] | < 50 | < 5 |
| CN(C)[C@@H]1CCN(CCC2CCc3c(sc4ncnc(Nc5ccc(OCc6ccccn6)c(Cl)c5)c34)C2)C1 (stereo partly drawn) [Example 181, N-[3-chloro-4-(pyridin-2-ylmethoxy)phenyl]-7-{2-[(3R)-3-(dimethylamino)pyrrolidin-1-yl]ethyl}-5,6,7,8-tetrahydro[1]benzothieno[2,3-d]pyrimidin-4-amine] | < 50 | < 5 |
| Clc1cc(Nc2ncnc3sc4c(c23)CCC(CCn2ccnc2)C4)ccc1OCc1ccccn1 (stereo not shown) [Example 182, N-[3-chloro-4-(pyridin-2-ylmethoxy)phenyl]-7-[2-(1H-imidazol-1-yl)ethyl]-5,6,7,8-tetrahydro[1]benzothieno[2,3-d]pyrimidin-4-amine] | < 50 | < 5 |
| CN1CCN(CCC2CCc3c(sc4ncnc(Nc5ccc(OCc6ccccn6)c(Cl)c5)c34)C2)CC1 (stereo not shown) [Example 183, N-[3-chloro-4-(pyridin-2-ylmethoxy)phenyl]-7-[2-(4-methylpiperazin-1-yl)ethyl]-5,6,7,8-tetrahydro[1]benzothieno[2,3-d]pyrimidin-4-amine] | < 5 | < 5 |
| CN(C)CCNCCC1CCc2c(sc3ncnc(Nc4ccc(OCc5ccccn5)c(Cl)c4)c23)C1 (stereo not shown) [Example 184, N′-[2-(4-{[3-chloro-4-(pyridin-2-ylmethoxy)phenyl]amino}-5,6,7,8-tetrahydro[1]benzothieno[2,3-d]pyrimidin-7-yl)ethyl]-N,N-dimethylethane-1,2-diamine] | < 5 | < 5 |
| CN(C)CCC1CCc2c(sc3ncnc(Nc4ccc(OCc5ccccn5)c(Cl)c4)c23)C1 (stereo not shown) [Example 185, N-[3-chloro-4-(pyridin-2-ylmethoxy)phenyl]-7-[2-(dimethylamino)ethyl]-5,6,7,8-tetrahydro[1]benzothieno[2,3-d]pyrimidin-4-amine] | < 5 | < 5 |
| O[C@H]1CCN(CCC2CCc3c(sc4ncnc(Nc5ccc(OCc6cccc(F)c6)c(Cl)c5)c34)C2)C1 (stereo partly drawn) [Example 186, (3S)-1-{2-[4-({3-chloro-4-[(3-fluorobenzyl)oxy]phenyl}amino)-5,6,7,8-tetrahydro[1]benzothieno[2,3-d]pyrimidin-7-yl]ethyl}pyrrolidin-3-ol] | < 5 | < 5 |

Source: patent US7238701B2, “Substituted tetrahydrobenzothienopyrimidinamine compounds useful for treating hyper-proliferative disorders” (Bayer Pharmaceuticals Corporation, priority 2003, dated 2007)
